Test systems include ACHN; EKVX; HCC 2998; HL-60; HOP-92; Hs-578T; K562; LOX IMVI; MCF7; MOLT-4; NCI-H226; NCI-H23; OVCAR-3; RPMI-8226; RXF 393; SF-295; SNB-19; SNB-75; UO-31; CCRF-CEM.
Test in all cases: growth of human tumour cells (NCI), 48 h

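Protocol summary: plate cells (96-well), add compound at 5 concentrations, incubate 48 h, interpolate endpoints linearly. The concentration for 50% growth inhibition is given as GI50.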 The source made the active and inactive calls. No stated cut-off is given here; in the data, active = GI50 up to about 1.1 µM and inactive = higher.

On to `COc1ccc(/C=C2\C[C@H]3[C@@H]4CCC5=C[C@@H](N6CCCC6)CC[C@]5(C)[C@H]4CC[C@]3(C)[C@H]2O)cc1`, for which the GI50 in the test on ACHN is 3.29 µM (inactive); in the test on EKVX, 3.81 µM (inactive); with HCC 2998 it was 1.31 µM (inactive); with HL-60, 1.95 µM (inactive); with HOP-92, 2.49 µM (inactive); with Hs-578T it was 2.69 µM (inactive). The GI50 is 2.16 µM (inactive) with K562; 1.78 µM (inactive) in the test on LOX IMVI; 1.93 µM (inactive) with MCF7; 2.86 µM (inactive) in the test on MOLT-4; 3.13 µM (inactive) in the test on NCI-H226; 3.44 µM (inactive) with NCI-H23. Also, the GI50 in the test with OVCAR-3 was 2.64 µM (inactive); in the test on RPMI-8226 it was 2.97 µM (inactive); in the test on RXF 393 it was 1.52 µM (inactive); in the test on SF-295, 2.3 µM (inactive); with SNB-19, 4.61 µM (inactive); in the test on SNB-75, 4.97 µM (inactive). In addition, the GI50 with UO-31 is 1.72 µM (inactive).

In the case of `Clc1cccc(C2ON=C(c3ccccc3)N2C23CC4CC(CC(C4)C2)C3)c1Cl` (stereo not drawn), the GI50 in the test with ACHN is > 10 µM (inactive); in the test on CCRF-CEM it was > 10 µM (inactive); in the test with EKVX, > 10 µM (inactive); in the test with HCC 2998 it was > 10 µM (inactive); in the test with HOP-92 it was 2.72 µM (inactive); in the test on Hs-578T, > 10 µM (inactive). The GI50 in the test with K562, in the test with LOX IMVI, with MCF7, in the test on MOLT-4, in the test on NCI-H226 and in the test with NCI-H23 was > 10 µM (inactive) throughout. In addition, the GI50 in the test with OVCAR-3, with RPMI-8226, with RXF 393, in the test with SF-295, in the test with SNB-19 and with SNB-75 was > 10 µM (inactive) each time. In addition, the GI50 in the test on UO-31 was 5.02 µM (inactive).

As to `N=c1oc2ccc([N+](=O)[O-])cc2cc1C(=O)NCc1ccccc1`, the GI50 was 16.7 µM (inactive) in the test on ACHN; 27 µM (inactive) in the test on CCRF-CEM; 38.8 µM (inactive) in the test with EKVX; 32.1 µM (inactive) in the test on HCC 2998; 27.2 µM (inactive) in the test with HL-60; 18 µM (inactive) in the test on HOP-92. The GI50 is 18.7 µM (inactive) in the test on Hs-578T; 40 µM (inactive) in the test on K562; 17.7 µM (inactive) with LOX IMVI; 35.7 µM (inactive) with MCF7; 27.9 µM (inactive) in the test with MOLT-4; 12.9 µM (inactive) with NCI-H226. Further, the GI50 was 38.7 µM (inactive) in the test on RPMI-8226; 14.7 µM (inactive) with RXF 393; 36.4 µM (inactive) in the test on SF-295; 39 µM (inactive) in the test on SNB-19; 11.5 µM (inactive) in the test with SNB-75; 18 µM (inactive) in the test on UO-31.

In the case of `COc1cc(/C=C2\N=C(c3ccccc3)N(c3nc4ccccc4s3)C2=O)cc(OC)c1OC`, the GI50 is 20.6 µM (inactive) in the test with ACHN; 21.8 µM (inactive) with EKVX; 27.4 µM (inactive) in the test on HCC 2998; 60.5 µM (inactive) in the test on HL-60; 26.2 µM (inactive) with HOP-92; 17.3 µM (inactive) in the test with Hs-578T. Besides, the GI50 is 16.5 µM (inactive) with K562; 36.4 µM (inactive) in the test with LOX IMVI; 31.3 µM (inactive) in the test with MCF7; 11.7 µM (inactive) with MOLT-4; > 100 µM (inactive) with NCI-H226; 31.1 µM (inactive) in the test on NCI-H23. The GI50 is 20 µM (inactive) in the test with OVCAR-3; 0.352 µM (active) in the test with RPMI-8226; 18.8 µM (inactive) in the test with RXF 393; 39.5 µM (inactive) in the test on SF-295; 34.2 µM (inactive) in the test on SNB-19; 23.1 µM (inactive) with SNB-75. For the same molecule, the GI50 with UO-31 was 58.5 µM (inactive).

For `Cc1nn(C(=O)c2ccncc2)c2c1C(c1ccc(Cl)cc1)SC(=N)N2` (stereo not drawn), the GI50 with ACHN, in the test with CCRF-CEM, in the test on EKVX, in the test on HCC 2998, with HL-60 and in the test on HOP-92 was > 10 µM (inactive) throughout. The GI50 in the test with Hs-578T, in the test with K562, with LOX IMVI, with MCF7, in the test with MOLT-4 and in the test with NCI-H226 was > 10 µM (inactive) in each case. Further, the GI50 in the test on NCI-H23, in the test on OVCAR-3, in the test with RPMI-8226, with RXF 393, in the test on SF-295 and in the test on SNB-19 was > 10 µM (inactive) in each case. In the test with SNB-75, the GI50 was > 10 µM (inactive).

In the case of `Cc1ccc2[nH]c3c(c2c1)C1CCC(C(C)(C)C)CC1C1C(=O)N(c2ccc4c(c2)OCO4)C(=O)C31` (stereo not drawn), the GI50 in the test on ACHN is 1.87 µM (inactive); in the test with CCRF-CEM, 1.82 µM (inactive); in the test on EKVX, 3.57 µM (inactive); in the test on HCC 2998, 2.38 µM (inactive); in the test with HL-60 it was 2.72 µM (inactive); with HOP-92, 2.24 µM (inactive). The GI50 was 1.55 µM (inactive) in the test with Hs-578T; 3.01 µM (inactive) in the test on K562; 2.4 µM (inactive) with LOX IMVI; 3.24 µM (inactive) in the test on MCF7; 1.81 µM (inactive) in the test on MOLT-4; 2.84 µM (inactive) in the test on NCI-H226. For the same molecule, the GI50 in the test on NCI-H23 is 6.55 µM (inactive); with OVCAR-3 it was 1.52 µM (inactive); in the test on RPMI-8226 it was 4.3 µM (inactive); in the test with RXF 393, 2.26 µM (inactive); with SF-295, 3.11 µM (inactive); with SNB-19, 2.64 µM (inactive). Also, the GI50 with UO-31 was 2.55 µM (inactive).

For the molecule `O=C(O)c1ccc(Nc2cnc3cc(C(F)(F)F)ccc3n2)cc1`, the GI50 in the test on ACHN is 34.1 µM (inactive); in the test on CCRF-CEM, 57.9 µM (inactive); with EKVX it was 40.6 µM (inactive); in the test on HCC 2998 it was 30.2 µM (inactive); in the test with HL-60, 22.8 µM (inactive); with Hs-578T it was 40 µM (inactive). The GI50 in the test with K562 is 29.5 µM (inactive); with LOX IMVI, 35.8 µM (inactive); with MCF7, 38 µM (inactive); in the test on MOLT-4 it was 47.5 µM (inactive); in the test with NCI-H226, 71.3 µM (inactive); with NCI-H23, 46.5 µM (inactive). Besides, the GI50 in the test with OVCAR-3 was 34.5 µM (inactive); in the test with RPMI-8226, 35.2 µM (inactive); with RXF 393, 46.9 µM (inactive); in the test on SF-295, 89.3 µM (inactive); in the test with SNB-19, 60 µM (inactive); with SNB-75, 35.6 µM (inactive). Also, the GI50 in the test with UO-31 is 43.2 µM (inactive).

Consider `Cc1cc(S(=O)(=O)Nc2nc(N)n(C)n2)c(S)cc1Cl`, for which the GI50 with ACHN, in the test on CCRF-CEM, in the test on EKVX, with HCC 2998, in the test on HL-60 and in the test on Hs-578T was > 10 µM (inactive) each time. For the same molecule, the GI50 with K562, in the test with LOX IMVI, with MCF7, in the test on MOLT-4, in the test on NCI-H226 and in the test with NCI-H23 was > 10 µM (inactive) throughout. In addition, the GI50 with OVCAR-3, in the test with RPMI-8226, with RXF 393, in the test with SF-295, in the test with SNB-19 and in the test with SNB-75 was > 10 µM (inactive) each time. Moreover, the GI50 with UO-31 is > 10 µM (inactive).

Turning to `N#CC1=C(N2CCOCC2)CCC1`, the GI50 in the test on ACHN, in the test on CCRF-CEM, in the test on EKVX, in the test on HCC 2998, with HL-60 and in the test on Hs-578T was > 100 µM (inactive) each time. Besides, the GI50 in the test with K562, in the test on LOX IMVI, in the test on MCF7, in the test on MOLT-4, in the test with NCI-H226 and in the test with NCI-H23 was > 100 µM (inactive) each time. Besides, the GI50 in the test on OVCAR-3, in the test with RPMI-8226, with RXF 393, in the test on SF-295, with SNB-19 and in the test on SNB-75 was > 100 µM (inactive) each time. Moreover, the GI50 in the test on UO-31 is > 100 µM (inactive).

With `CC(=O)OCC12C(OC(C)=O)C[C@@H](C)C3(CC(c4ccoc4)OC3=O)C1CCC(O)C21CO1` (stereo partly drawn), the GI50 in the test with ACHN, in the test on HCC 2998, with HL-60, in the test on HOP-92, in the test with Hs-578T and with K562 was > 100 µM (inactive) in each case. Besides, the GI50 in the test on LOX IMVI, in the test with MCF7, in the test with MOLT-4, in the test with NCI-H226, with NCI-H23 and with OVCAR-3 was > 100 µM (inactive) each time. For the same molecule, the GI50 in the test with RPMI-8226, with RXF 393, in the test on SF-295, in the test on SNB-19, with SNB-75 and in the test on UO-31 was > 100 µM (inactive) throughout.
